Our source for the minimal effective concentration and melting point values is patent publication US6664260B2, “Heterocyclic ether substituted imidazoquinolines” (3M Innovative Properties Company, priority 2000, dated 2003).

The minimal effective concentration is the lowest level tested that produced the effect sought. Broadly, the melting point is the temperature of the solid-liquid transition.

Molecules are shown by their SMILES.

Data set [1] relates to interferon (α). The data set can be described thus: Cytokine Induction in Human Cells: interferon (α) secreted by PBMCs, ELISA. The data set is classed as cell-based. Conditions: PBMC, incubated 18 to 24 hours, lowest concentration found to induce interferon. The source says: (§1) An in vitro human blood cell system is used to assess cytokine induction. Activity is based on the measurement of interferon and tumor necrosis factor (α) (IFN and TNF, respectively) secreted into culture media as described by Testerman et. al. In “Cytokine Induction by the Immunomodulators Imiquimod and S-27609”, Journal of Leukocyte Biology, 58, 365-372 (September, 1995).
(§2) Whole blood from healthy human donors is collected by venipuncture into EDTA vacutainer tubes. Peripheral blood mononuclear cells (PBMCs) are separated from whole blood by density gradient centrifugation using Histopaque®-1077. The PBMCs are washed twice with Hank's Balanced Salts Solution and then are suspended at 3-4×10^6 cells/mL in RPMI complete. The PBMC suspension is added to 48 well flat bottom sterile tissue culture plates (Costar, Cambridge, Mass. or Becton Dickinson Labware, Lincoln Park, N.J.) containing an equal volume of RPMI complete media containing test compound.
(§3) The compounds are solubilized in dimethyl sulfoxide (DMSO). The DMSO concentration should not exceed a final concentration of 1% for addition to the culture wells
(§4) The solution of test compound is added at 60 μM to the first well containing RPMI complete and serial 3 fold dilutions are made in the wells. The PBMC suspension is then added to the wells in an equal volume, bringing the test compound concentrations to the desired range (0.12 to 30 μM). The final concentration of PBMC suspension is 1.5-2×10^6 cells/mL. The plates are covered with sterile plastic lids, mixed gently and then incubated for 18 to 24 hours at 37° C. in a 5% carbon dioxide atmosphere.
(§5) Following incubation the plates are centrifuged for 5-10 minutes at 1000 rpm (˜200×g) at 4° C. The cell-free culture supernatant is removed with a sterile polypropylene pipet and transferred to sterile polypropylene tubes. Samples are maintained at −30 to −70° C. until analysis. The samples are analyzed for interferon (α) and for tumor necrosis factor (α) by ELISA.
Interferon (α) concentration is determined by ELISA using a Human Multi-Species kit from PBL Biomedical Laboratories, New Brunswick, N.J. Results are expressed in pg/mL.
(§6) The table below lists the lowest concentration found to induce interferon and the lowest concentration found to induce tumor necrosis factor for each compound.
Background: In an ELISA, binding on a coated surface is turned into a signal by an enzyme label.

In data set [2] the test system is tumor necrosis factor (α). The data set can be described thus: Cytokine Induction in Human Cells: tumor necrosis factor (α) secreted by PBMCs, ELISA. Conditions: PBMC, incubated 18 to 24 hours, lowest concentration found to induce tumor necrosis factor. The data set is classed as cell-based.
Source text: as §1, §2, §3, §4, §5
Tumor necrosis factor (α) (TNF)concentration is determined using ELISA kits available from Genzyme, Cambridge, Mass.; R&D Systems, Minneapolis, Minn.; or Pharmingen, San Diego, Calif. Results are expressed in pg/mL.
as §6

For the compound `Cn1c(COCCn2cnc3c(N)nc4ccccc4c32)cc2ccccc21` [Example 31, 1-{2-[(1-methyl-1H-indol-2-yl)methoxy]ethyl}-1H-imidazo[4,5-c]quinolin-4-amine], the melting point is 243 to 245 °C. The compound also had a minimal effective concentration in data set [1] of 3.33 µM. The same compound registered a minimal effective concentration in data set [2] of 3.33 µM.

`Nc1nc2ccccc2c2c1ncn2CCOCCCc1cccs1` [Example 32, 1-[2-(3-thien-2-ylpropoxy)ethyl]-1H-imidazo[4,5-c]quinolin-4-amine] returned a melting point of 130.1 to 131.6 °C. Besides, in data set [1], the minimal effective concentration worked out at 0.01 µM. Also, the minimal effective concentration in data set [2] turned out to be 1.11 µM.

For the compound `Cc1nc2c(N)nc3ccccc3c2n1CCOCCCc1cccnc1` [Example 34, 2-Methyl-1-[2-(3-pyridin-3-ylpropoxy)ethyl]-1H-imidazo[4,5-c]quinoline-4-amine], the melting point lay within 145 to 146 °C. Further, the minimal effective concentration in data set [1] was found to be 0.01 µM. The minimal effective concentration in data set [2] was determined as 0.04 µM.
